# Columns and labels:
# Format in all cases: cell-based
# [1] = test system: Gram-negative bacterial cocktail (3 E. Coli strains and 3 Salmonella strains); experiment: Challenge test in mashed potato, Gram-negative cocktail; details: 12° C.; for Microbial growth: mashed potato pH 5.6, 0.5%
# Experimental: (§1) Five hundred grams of mashed potato were added to 500 g of distilled water and mixed thoroughly. The pH of the mixture was adjusted to pH 5.6 with 1N HCl. Three separate samples of 300 g of mashed potato were added with respectively, 0.5 % commercial sodium acetate, 0.5% of freeze dried fermentate and a control with no acetate. The three mashed potato samples (respectively with commercial acetate, fermentate and control) were heated at 70° C. for 5 min in a microwave and then dispatched aseptically in separate aliquots of 30 g each. The pH of all samples was checked before inoculation. Triplicate samples of each the three mashed potato aliquots were inoculated with 10^3-10^4 colony forming units per gram (cfu/g) of Gram-negative bacterial cocktail (3 E. Coli strains and 3 Salmonella strains), or L. monocytogenes cocktail and incubated at 12° C. for 2 weeks. Periodically, samples were withdrawn and bacterial counts were enumerated using BHI agar and incubated at 30° C. for 48 hours.
# To confirm the effectiveness of the two sources of sodium acetate against Gram-negative bacteria, a cocktail of Gram-negative bacteria was used in a challenge experiment in mashed potato.
# [2] = test system: challenge bacteria (L. monocytogenes, B. cereus, E. coli, S. typhimurium); experiment: Challenge test in BHI broth, challenge bacteria overall; details: neutral pH (6.5 to 7.0) and 30° C.
# Experimental: (§2) Commercial sodium acetate (Sigma) and the freeze-dried fermentate of the invention (pH 5.0) were tested in Brain Heart Infusion broth (BHI), using single and cocktail tests. BHI was added with:
# (§3) (a) commercial sodium acetate at final concentrations of 0.25 and 0.5%;
# (§4) (b) freeze dried fermentate (pH 5.0) at final concentrations of sodium acetate of 0.25 to 0.5%; and,
# (§5) (c) a control sample consisted of BHI broth without sodium acetate.
# (§6) For first samples, the pH of BHI broth with or without sodium acetate was adjusted to 5.6 with HCl (10%) and the samples filter-sterilized ([…], Millipore). For comparative samples, the pH was controlled at 7.0 and the sample filtered-sterilized.
# (§7) The freeze-dried product was evaluated for its inhibitory actions against Gram-negative Gram-positive bacteria. Twenty-mL samples were inoculated with 10^4-10^5 cfu/mL of L. monocytogenes, B. cereus, E. coli, or S. typhimurium alone and combined. The samples were incubated at two conditions: at 30° C. for 24 h, and at 12° C. for 2 weeks.
# (§8) The control samples consisted of samples with and without commercial sodium acetate.
# [3] = test system: Cocktail (L. monocytogenes, Bacillus cereus, Escherichia coli, S. typhimurium); experiment: Challenge test in BHI broth, bacterial cocktail; details: for Bacterial growth (optical density 550 nm after 12 days): pH 5.6, 12° C.
# Experimental: as §2, §3, §4, §5, §6, §7, §8
# An additional challenge test was carried out on the bacterial cocktail strains of Listeria monocytogenes, Escheriachia coli, Bacillus cereus, and Salmonella typhimurium.
# [4] = test system: Listeria monocytogenes strains; experiment: Challenge test in mashed potato, L. monocytogenes cocktail; details: for Microbial growth: mashed potato pH 5.6, 0.5%, 12° C.
# Experimental: as §1
# To confirm the effectiveness of the two sources of sodium acetate against Listeria monocytogenes strains, another challenge experiment in mashed potato was performed.
# Escherichia coli = experiment: Challenge test in BHI broth, single strain; details: for Bacterial growth (optical density 550 nm after 12 days): pH 5.6, 12° C.
# Experimental: as §2, §3, §4, §5, §6, §7, §8
# Bacillus cereus = experiment: Challenge test in BHI broth, single strain; details: for Bacterial growth (optical density 550 nm after 12 days): pH 5.6, 12° C.
# Experimental: as §2, §3, §4, §5, §6, §7, §8
# Salmonella typhimurium = experiment: Challenge test in BHI broth, single strain; details: for Bacterial growth (optical density 550 nm after 12 days): pH 5.6, 12° C.
# Experimental: as §2, §3, §4, §5, §6, §7, §8
# Listeria monocytogenes = experiment: Challenge test in BHI broth, single strain; details: for Bacterial growth (optical density 550 nm after 12 days): pH 5.6, 12° C.
# Experimental: as §2, §3, §4, §5, §6, §7, §8
# [5] = 0.25% sodium acetate, pH 5.6, 30° C.
# [6] = 0.25% sodium acetate, pH 7.0, 30° C.
# [7] = 0.5% sodium acetate, pH 5.6, 30° C.
# [8] = 0.5% sodium acetate, pH 7.0, 30° C.
structure (smiles),measurement,setting,value
"CC(=O)[O-].[Na+] [C, sodium acetate]",Microbial growth,[1]; day 0,4.6 Log10 cfu/g
same,Microbial growth,[1]; day 2,4.6 Log10 cfu/g
same,Microbial growth,[1]; day 5,4.5 Log10 cfu/g
same,Microbial growth,[1]; day 7,4.5 Log10 cfu/g
same,Microbial growth,[1]; day 9,4.1 Log10 cfu/g
same,Inhibitory effectiveness on growth of Gram-negative cocktail (in words),[1]; mashed potato,inhibitory effectiveness
same,Inhibition of the challenge bacteria (in words),[2],neither commercial sodium acetate nor the fermentate inhibit
same,Bacterial growth (optical density 550 nm after 12 days),[3]; 0.25% sodium acetate,0.287
same,Bacterial growth (optical density 550 nm after 12 days),[3]; 0.5% sodium acetate,0.266
same,Inhibition of the bacterial cocktail (in words),"[3]; pH 5.6 and at 2° C. (so in the source), both concentrations",failed to inhibit
same,Microbial growth,[4]; day 0,3.1 Log10 cfu/g
same,Microbial growth,[4]; day 2,4.4 Log10 cfu/g
same,Microbial growth,[4]; day 5,4.3 Log10 cfu/g
same,Microbial growth,[4]; day 7,4.9 Log10 cfu/g
same,Microbial growth,[4]; day 14,7.5 Log10 cfu/g
same,Delay of growth of Listeria monocytogenes (in words),"[4]; mashed potato, 14 days of incubation at 12° C.",unable to delay the growth of this organism for more than a week
same,Bacterial growth (optical density 550 nm after 12 days),Escherichia coli; 0.25% sodium acetate,0.017
same,Bacterial growth (optical density 550 nm after 24 hrs),Escherichia coli; [5],0.231
same,Bacterial growth (optical density 550 nm after 24 hrs),Escherichia coli; [6],0.589
same,Bacterial growth (optical density 550 nm after 12 days),Escherichia coli; 0.5% sodium acetate,0.013
same,Bacterial growth (optical density 550 nm after 24 hrs),Escherichia coli; [7],0.099
same,Bacterial growth (optical density 550 nm after 24 hrs),Escherichia coli; [8],0.587
same,Inhibitory effect on growth (in words),Escherichia coli; pH 5.6 and below,exhibited inhibitory effects
same,Bacterial growth (optical density 550 nm after 12 days),Bacillus cereus; 0.25% sodium acetate,0.017
same,Bacterial growth (optical density 550 nm after 24 hrs),Bacillus cereus; [5],0.068
same,Bacterial growth (optical density 550 nm after 24 hrs),Bacillus cereus; [6],0.325
same,Bacterial growth (optical density 550 nm after 12 days),Bacillus cereus; 0.5% sodium acetate,0.017
same,Bacterial growth (optical density 550 nm after 24 hrs),Bacillus cereus; [7],0.042
same,Bacterial growth (optical density 550 nm after 24 hrs),Bacillus cereus; [8],0.315
same,Inhibitory effect on growth (in words),Bacillus cereus; pH 5.6 and below,exhibited inhibitory effects
same,Bacterial growth (optical density 550 nm after 12 days),Salmonella typhimurium; 0.25% sodium acetate,0.010
same,Bacterial growth (optical density 550 nm after 24 hrs),Salmonella typhimurium; [5],0.089
same,Bacterial growth (optical density 550 nm after 24 hrs),Salmonella typhimurium; [6],0.645
same,Bacterial growth (optical density 550 nm after 12 days),Salmonella typhimurium; 0.5% sodium acetate,0.013
same,Bacterial growth (optical density 550 nm after 24 hrs),Salmonella typhimurium; [7],0.020
same,Bacterial growth (optical density 550 nm after 24 hrs),Salmonella typhimurium; [8],0.600
same,Inhibitory effect on growth (in words),Salmonella typhimurium; pH 5.6 and below,exhibited inhibitory effects
same,Bacterial growth (optical density 550 nm after 12 days),Listeria monocytogenes; 0.25% sodium acetate,0.212
same,Bacterial growth (optical density 550 nm after 24 hrs),Listeria monocytogenes; [5],0.216
same,Bacterial growth (optical density 550 nm after 24 hrs),Listeria monocytogenes; [6],0.429
same,Bacterial growth (optical density 550 nm after 12 days),Listeria monocytogenes; 0.5% sodium acetate,0.220
same,Bacterial growth (optical density 550 nm after 24 hrs),Listeria monocytogenes; [7],0.063
same,Bacterial growth (optical density 550 nm after 24 hrs),Listeria monocytogenes; [8],0.399

# Source: patent US6387427B1, “Method of preservation of a food product” (Nestec S.A., priority 2000, dated 2002)
